Measurements: patent US7132271B2, “Methods for enhancing the production of viral vaccines in cell culture” (priority 1995, dated 2006)

Tested on: human PKR
Assay: Western blot analysis of PKR protein in U937 transfectants
Type: cell-based
Details: U937-neo cells
Procedure: Cell extracts (100 μg) were separated on a 10% SDS-polyacrylamide gel and electrotransferred onto nitrocellulose membrane. The membranes were incubated with anti-PKR monoclonal antibody (Meurs et al. Cell 1990) at 1:1000 in BLOTTO (5% nonfat dry milk, 0.05% Tween-20 in Tris-buffered saline). Final detection of PKR was facilitated by probing with a secondary horseradish peroxidase-conjugated goat anti-mouse antibody (Santa Cruz Biotech) and using a chemiluminesence method (Amersham ECL).

Substance: IFN-γ: recombinant human IFN-γ, Amgen
- PKR protein level following treatment with IFN: increased
